According to article PMC3809587, “Structure and function of the Smoothened extracellular domain in vertebrate Hedgehog signaling” (eLife, 2013):

Experiments:
YFP-mSmo [1] = target: T1, YFP-mSmo (Mus musculus, UniProt P56726); test: 20(S)-OHC bead pull-down of YFP-mSmo from cell lysates; type: binding; conditions: 50 μM free 20(S)-OHC as competitor
T1 construct: Smo^−/− cells stably expressing full-length (FL) YFP-mSmo or ΔCRD-YFP-mSmo were treated with Shh, SAG (100 nM) or 20(S)-OHC (10 μM); expressed in transfected cells
Experimental: 293T cells transfected with constructs encoding mSmo variants were lysed in hypotonic SEAT buffer (250 mM sucrose, 1 mM EDTA, 10 mM acetic acid, 10 mM triethanolamine and the SigmaFast EDTA-Free protease inhibitor cocktail). After the removal of nuclei by centrifugation (900×g, 5 min, 4°C), membranes were pelleted by ultracentrifugation (95,000×g, 30 min) and solubilized in a n-dodecyl-β-D-maltopyranoside (DDM) extraction buffer (50 mM Tris pH 7.4, 150 mM NaCl, 10% vol/vol glycerol, 0.5% wt/vol DDM and the SigmaFast EDTA-Free protease inhibitor cocktail) for 2 hr at 4°C, followed by removal of insoluble material by ultracentrifugation (100,000×g, 30 min). This DDM membrane extract was incubated with 20(S)-OHC beads for 12 hr at 4°C to allow binding to equilibrium. After extensive washing, proteins captured on the beads were eluted with reducing SDS sample buffer. The presence of YFP-mSmo in these eluates was determined by quantitative immunoblotting with an anti-YFP antibody (NB600-308, 1:5000; Novus) and infrared imaging (Li-Cor Odyssey).

[2] = tested on: Drosophila melanogaster Smo (dSmo) and dSmo CRD; test: 20(S)-OHC bead binding of Drosophila Smo; conditions: bead-immobilized 20(S)-OHC
zSmo ectodomain = target: T2, zSmo ectodomain (Danio rerio, UniProt Q5RH73); test: Ligand affinity chromatography: zSmo ectodomain binding to 20(S)-OHC beads; design: species or system zebrafish
T2 construct: zSmo-ectodomain: a.a; 29–212), fused C-terminally with a with a hexa-histidine (His6) tag; His6 (C); made in house
T2 sequence (Q5RH73 29-212): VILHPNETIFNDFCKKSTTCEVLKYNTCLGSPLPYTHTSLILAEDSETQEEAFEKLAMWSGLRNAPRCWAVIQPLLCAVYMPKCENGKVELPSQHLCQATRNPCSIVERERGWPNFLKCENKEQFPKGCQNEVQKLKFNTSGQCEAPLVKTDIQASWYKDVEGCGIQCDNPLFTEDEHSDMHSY
Experimental: For ligand affinity chromatography with purified mSmo CRD-Fc or zSmo ectodomain, protein was diluted in 20 mM Tris pH 8.5, 150 mM NaCl, 0.3% octyl-glucoside prior to addition of competitors and 20(S)-OHC beads. After binding was allowed to proceed for 12 hr at 4°C, the resin was washed and captured protein was eluted as described above. The presence of mSmo CRD-Fc was measured by an anti-human HRP-coupled antibody (1:20,000) or anti-human IR800-coupled antibody (1:10,000; for all quantitation, detected by LiCor Odyssey). The presence of zSmo ectodomain protein was measured by colloidal Coomassie staining (GelCode Blue, Pierce/Thermo Scientific).
For Hh reporter assays, each point is reported as the mean ± standard deviation (SD) derived from triplicates. Each result in the paper was repeated at least three times with similar outcomes. Relative luciferase activity was calculated by dividing Gli luciferase by Renilla luciferase luminescence. Fold-change in reporter activity was calculated by dividing each replicate by the mean reporter activity of the vehicle-treated control. Normalized (% of max) Hh reporter activity was calculated by setting the maximum value of a set to 100% and zero to 0% using the ‘normalize’ function of GraphPad Prism. […]

ΔCRD-YFP-mSmo = target: T3, ΔCRD-YFP-mSmo (Mus musculus, UniProt P56726, DEL68-184); test: Hh signaling by ΔCRD-YFP-mSmo in Smo−/− cells (immunoblot, Hh reporter); type: cell-based
T3 construct: All mSmo mutants were made using Quickchange or PCR methods in the context of a previously described construct encoding full-length mouse Smo (UniProt P56726); expressed in transfected cells

YFP-mSmo [3] = target: T1, YFP-mSmo; test: Gli1 and Gli3R immunoblot in Smo−/−:YFP-mSmo cells; type: cell-based; conditions: SAG 100 nM, 20(S)-OHC 10 μM
Experimental: Cultured cells stably expressing YFP-mSmo, ΔCRD-YFP-mSmo, or ΔC-YFP-mSmo were scraped into ice-cold PBS containing SigmaFast Protease inhibitor cocktail (Sigma) and collected as a pellet by centrifugation (1000×g, 10 min, 4°C). Cells were lysed (1 hr, 4°C) by agitation in modified RIPA buffer (50 mM sodium-Tris pH 7.4, 150 mM sodium chloride, 2% NP-40, 0.5% deoxycholate, 0.1% sodium-dodecyl sulfate [SDS], 1 mM dithiothreitol and the SigmaFast Protease inhibitor cocktail). After clarification (20,000×g, 45 min, 4°C), the protein concentration of each lysate was measured using the bicinchoninic acid assay (BCA, Pierce/Thermo Scientific, Rockford, IL). Lysate aliquots containing equal amount of total protein were fractionated on an 8% SDS-PAGE gel and transferred to a nitrocellulose membrane for immunoblotting with anti-Gli1 antibody (#L42B10, 1:500; Cell Signaling, Denvers, MA), anti-GFP antibody (1:5000; Novus, Littleton, CO), anti-Gli3 antibody (AF3690 1:200; R&D, Minneapolis, MN) and anti-p38 antibody (ab31828, 1:2000; Abcam, Cambridge, MA). In Figures 1–4, vertical dashed black lines represent non-contiguous lanes from the same immunoblot juxtaposed for clarity.

Zebrafish embryos = test: Zebrafish embryo treatment: eng2a:GFP reporter and ptch2 in situ hybridization; type: in vivo; conditions: 30hpf embryos, 20(S)-OHC 50 µM; for eng2a:GFP reporter expression: cyclopamine 40 µM
Experimental: Adult fishes were maintained on a 14-hr light/10-hr dark cycle at 28°C in the AVA (Singapore) certified IMCB Zebrafish Facility. Zebrafish strain used was Tg(eng2a:eGFP)^i233 ([Maurya et al., 2011]).
The embryos of Tg(eng2a:eGFP)^i233 were dechorinated using pronase (Roche) at one cell stage. […] Control embryos were kept in water containing the same amount of ethanol, used as the vehicle for the drugs. Standard in situ hybridization (ISH) was performed with anti-Dig alkaline phosphatase and chromogenic substrate NBT/BCIP as previously described ([Oxtoby and Jowett, 1993]). ptch2 (formerly ptc1) RNA probe was prepared from template as previously described ([Concordet et al., 1996]).

mSmo CRD-Fc = target: T4, mSmo CRD-Fc (Mus musculus, UniProt P56726); test: Ligand affinity chromatography: mSmo CRD-Fc binding to 20(S)-OHC beads; conditions: for inhibition of binding of mSmo CRD-Fc to 20(S)-OHC beads: free compound added as competitor
T4 construct: made in house; host or cells: 293F suspension cells (secreted)
T4 sequence (P56726 33-183): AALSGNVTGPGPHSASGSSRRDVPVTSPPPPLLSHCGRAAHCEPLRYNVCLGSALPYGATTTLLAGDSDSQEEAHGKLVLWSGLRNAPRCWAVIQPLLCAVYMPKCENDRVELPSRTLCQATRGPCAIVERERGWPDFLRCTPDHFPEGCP
Experimental: After binding was allowed to proceed for 12 hr at 4°C, the resin was washed and captured protein was eluted as described above. The presence of mSmo CRD-Fc was measured by an anti-human HRP-coupled antibody (1:20,000) or anti-human IR800-coupled antibody (1:10,000; for all quantitation, detected by LiCor Odyssey). The presence of zSmo ectodomain protein was measured by colloidal Coomassie staining (GelCode Blue, Pierce/Thermo Scientific). […]

[4] = tested on: endogenous mSmo in cilia of NIH 3T3 cells; test: Immunofluorescence of ciliary Smo accumulation; type: cell-based, mouse; conditions: NIH 3T3, 4 hr, presence of Shh
[5] = tested on: Hh reporter (8xGli-responsive promoter); conditions: ref Nachtergaele et al., 2012; cited from earlier work
[6] = tested on: endogenous mSmo in cilia of NIH 3T3 cells; design: method as in Rohatgi et al., 2009; conditions: absence of Shh; ref Rohatgi et al., 2009; cited from earlier work

T1 sequence (P56726 33-793): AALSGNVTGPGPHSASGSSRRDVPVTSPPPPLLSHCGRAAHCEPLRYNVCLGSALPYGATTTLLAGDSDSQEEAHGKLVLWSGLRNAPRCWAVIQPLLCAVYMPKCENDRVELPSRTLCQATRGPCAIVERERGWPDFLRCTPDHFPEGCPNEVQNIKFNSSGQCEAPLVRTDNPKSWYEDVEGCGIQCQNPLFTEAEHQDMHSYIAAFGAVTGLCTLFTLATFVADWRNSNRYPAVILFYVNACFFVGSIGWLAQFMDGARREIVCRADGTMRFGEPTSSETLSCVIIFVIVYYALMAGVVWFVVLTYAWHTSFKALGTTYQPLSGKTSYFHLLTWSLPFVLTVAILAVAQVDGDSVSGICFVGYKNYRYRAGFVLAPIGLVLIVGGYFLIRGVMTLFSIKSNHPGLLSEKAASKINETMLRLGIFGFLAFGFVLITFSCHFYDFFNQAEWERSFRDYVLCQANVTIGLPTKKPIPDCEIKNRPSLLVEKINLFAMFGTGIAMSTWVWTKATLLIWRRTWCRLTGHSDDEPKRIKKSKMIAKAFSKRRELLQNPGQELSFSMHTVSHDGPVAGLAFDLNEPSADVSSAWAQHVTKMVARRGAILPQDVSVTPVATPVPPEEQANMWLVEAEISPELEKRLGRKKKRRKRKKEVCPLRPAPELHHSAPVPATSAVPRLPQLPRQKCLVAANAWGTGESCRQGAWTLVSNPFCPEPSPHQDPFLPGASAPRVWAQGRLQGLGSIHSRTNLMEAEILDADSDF
T3 sequence (P56726 with tags, fused parts or gaps DEL68-184): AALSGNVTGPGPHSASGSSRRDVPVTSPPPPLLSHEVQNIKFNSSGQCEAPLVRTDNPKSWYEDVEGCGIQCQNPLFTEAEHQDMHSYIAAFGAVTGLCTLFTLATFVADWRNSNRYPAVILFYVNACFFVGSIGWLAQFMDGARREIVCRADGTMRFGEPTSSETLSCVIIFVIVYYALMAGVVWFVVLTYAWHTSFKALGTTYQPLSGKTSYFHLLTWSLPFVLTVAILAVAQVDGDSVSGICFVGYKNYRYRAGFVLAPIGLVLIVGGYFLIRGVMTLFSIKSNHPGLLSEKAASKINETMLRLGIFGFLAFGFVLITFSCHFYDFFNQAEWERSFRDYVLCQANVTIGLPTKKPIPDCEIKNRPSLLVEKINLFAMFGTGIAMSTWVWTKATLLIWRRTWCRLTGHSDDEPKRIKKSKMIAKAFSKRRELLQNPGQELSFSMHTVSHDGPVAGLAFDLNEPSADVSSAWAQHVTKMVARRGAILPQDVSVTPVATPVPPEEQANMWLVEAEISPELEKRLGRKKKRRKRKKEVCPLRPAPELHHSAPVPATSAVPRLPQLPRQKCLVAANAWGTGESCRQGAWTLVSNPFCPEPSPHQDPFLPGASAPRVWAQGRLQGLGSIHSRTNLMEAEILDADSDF

Compound | competition of YFP-mSmo binding to 20(S)-OHC beads (YFP-mSmo [1]) | binding of dSmo and dSmo CRD to 20(S)-OHC beads [2] | Kd (zSmo ectodomain; fixed amount of protein, increasing amounts of bead-immobilized sterol, read-out: Kd, zSmo ectodomain-20(S)-OHC interaction) [nM] | inhibition of binding of zSmo ectodomain to 20(S)-OHC beads (zSmo ectodomain; free compound added as competitor) | response of ΔCRD-YFP-mSmo to agonist (Hh target genes, Gli3R) (ΔCRD-YFP-mSmo; SAG 100 nM, 20(S)-OHC 10 μM) | Gli3R level (YFP-mSmo [3]) | activation of Hh target gene Gli1 (YFP-mSmo [3]) | ptch2 expression by in situ hybridization (Zebrafish embryos) | eng2a:GFP reporter expression (Zebrafish embryos) | Kd (mSmo CRD-Fc; fixed amount of protein, increasing amounts of bead-immobilized sterol, read-out: Kd, mSmo CRD-Fc-20(S)-OHC interaction) [nM] | inhibition of binding of mSmo CRD-Fc to 20(S)-OHC beads (mSmo CRD-Fc) | Shh-induced Smo accumulation in cilia [4] | potency against Shh-activated Smo compared to 20(S)-OHC-activated Smo [5] | inhibition of SAG activated ΔCRD-YFP-mSmo (ΔCRD-YFP-mSmo; SAG 25 nM, cyclopamine 5 μM, Hh reporter) | Smo accumulation in cilia, compound alone [6]
CC(C)CCC[C@](C)(O)[C@H]1CC[C@H]2[C@@H]3CC=C4C[C@@H](O)CC[C@]4(C)[C@H]3CC[C@@]21C [20(S)-OHC, 20(S)-hydroxycholesterol] | Binding to beads was not seen | failed to bind 20(S)-OHC beads | ~170 | inhibited in a dose-responsive fashion | failed to activate Hh target genes or to extinguish Gli3R levels | loss of the repressor form of Gli3 (Gli3R) was observed | could activate a Hh target gene, Gli1 | modest expansion of the expression domain | significant increase in the number of GFP positive fast twitch muscles | ~180 | Binding could be inhibited |  |  |  | 
CC1=C2C[C@H]3[C@@H](CC=C4C[C@@H](O)CC[C@@]43C)[C@@H]2CC[C@]12O[C@@H]1C[C@H](C)CN[C@H]1[C@H]2C [cyclopamine] |  |  |  |  |  |  |  |  | suppressed expression of the reporter gene |  | blocked the interaction | do not block Smo ciliary accumulation | much less potent | remained susceptible to inhibition by cyclopamine | can drive Smo accumulation in cilia even in the absence of Shh
